# Test results as given in patent US4374149A, “α-{[(Arylalkyl)amino]alkyl}-4-hydroxy-3-(lower-alkylsul finyl)benzenemethanols” (Sterling Drug Inc., priority 1978, dated 1983).
# Where a name gives a salt, the structure may show the parent alone.
# Tests used:
# β-adrenergic = β-adrenergic blocking activity, inhibition of isoproterenol-elicited heart rate increase in pentobarbitalized dog; format: in vivo; conditions: i.v.; for Dog β-blockade AED50 (approximate intravenous dose for 50% inhibition of isoproterenol-elicited heart rate increase): pentobarbitalized dog
# Experimental: The β-adrenergic blocking activity was determined in the pentobarbitalized dog as judged by the ability of the test compound to inhibit the elevation in heart rate elicited by a 0.5 mcg./kg. i.v. injection of isoproterenol.
# ^e AED50 = approximate intravenous dose required to cause 50%
# systolic blood pressure = assay: Antihypertensive activity, reduction in systolic blood pressure, single oral medication, unanesthetized spontaneous hypertensive rat; format: in vivo; conditions: P.O.; for Antihypertensive activity SH Rat AHD40 (single oral dose required to induce a 40 mm. average reduction in systolic blood pressure): unanesthetized SH rat
# Experimental: Antihypertensive activity was determined on the basis of the observed reduction in systolic blood pressure measured according to the method of H. Kersten et al., J. Lab. and Clin. Med. 32, 1090 (1947) following a single oral medication in the unanesthetized spontaneous hypertensive rat described by Okamato et al., Japan Circulation J. 27, 282 (1963).
# ^a AHD40 = single oral dose required to induce a 40 mm. average
# blood pressure = assay: Antihypertensive activity, sustained lowering of blood pressure, repeated oral medication, unanesthetized trained renal hypertensive dog; format: in vivo; conditions: administered once per day
# From the text: Antihypertensive activity was also judged on the basis of sustained reduction of blood pressure observed in the unanesthetized trained renal hypertensive dog following repeated oral medication according to the procedure described by Lape et al., Arch.
# ^b MED10 = minimum repeated oral daily dose required to effect a
# [1] = tested on: isolated rabbit ear artery; assay: Vasodilator activity, perfusion pressure in isolated rabbit ear artery
# From the text: Vasodilator activity was judged on the basis of observed reduction in perfusion pressure in the hind limb vasculature of the anesthetized dog determined according to the procedure described by Jandhyala et al., European J. Pharm. 17, 357 (1972), and also on the basis of percent reduction in perfusion pressure as measured in the isolated rabbit ear artery according to the method described by De LaLande et al., Aust. J. Exp. Biol. Med. Sci. 43, 639 (1965).
# ^d Vasodilation is expressed as the percentage reduction in perfusion
SMILES,Actual reduction in blood pressure observed at the indicated dose (systolic blood pressure; 50 mg./kg.),Antihypertensive activity SH Rat AHD40 (single oral dose required to induce a 40 mm. average reduction in systolic blood pressure) (systolic blood pressure),Dog β-blockade AED50 (approximate intravenous dose for 50% inhibition of isoproterenol-elicited heart rate increase) (β-adrenergic),further results
"COc1ccc(CCC(C)NCC(O)c2ccc(O)c([S+](C)[O-])c2)cc1 (stereo not shown) [Example 24C, hydrochloride]",-12 mm. Hg,–,–,Dog β-blockade AED50 (approximate intravenous dose for 50% inhibition of isoproterenol-elicited heart rate increase) (β-adrenergic; hydrochloride): ca. 0.50 mg./kg.; Antihypertensive activity SH Rat AHD40 (single oral dose required to induce a 40 mm. average reduction in systolic blood pressure) (systolic blood pressure; hydrochloride): > 50 mg/kg
"COc1ccc(CCC(C)NCCc2ccc(O)c([S+](C)[O-])c2)cc1 (stereo not shown) [Example 37C, 4-<2-{[3-(4-methoxyphenyl)-1-methylpropyl]amino}ethyl>-2-(methylsulfinyl)phenol hydrochloride]",–,> 150 mg/kg,–,"Actual reduction in blood pressure observed at the indicated dose (systolic blood pressure; 150 mg./kg., hydrochloride): -21 mm. Hg"
"COc1ccc(CCC(C)NCCc2ccc(O)c([S+](C)[O-])c2)cc1 (single isomer, unassigned) [Example 29C, 4-<2-{[3-(4-methoxyphenyl)-1-methylpropyl]amino}ethyl>-2-(methylsulfinyl)phenol hydrochloride]",–,< 20 mg/kg,> 1.0 mg/kg,Renal Hypertensive Dog MED10 (minimum repeated oral daily dose for sustained lowering of blood pressure of 10% or greater) (blood pressure): > 40 mg/kg; Actual percentage inhibition of heart rate increase above control level observed at the indicated dose (β-adrenergic; 1.0 mg./kg.): 43%; Actual reduction in blood pressure observed at the indicated dose (systolic blood pressure; 20 mg./kg.): -54 mm. Hg
"COc1ccc(CCC(C)NCC(O)c2ccc(O)c([S+](C)[O-])c2)cc1 (stereo not drawn) [Example 5G, 4-hydroxy-α-<{[3-(4-methoxyphenyl)-1-methylpropyl]amino}methyl>-3-(methylsulfinyl)benzenemethanol]",–,–,–,"Rabbit Ear Artery vasodilation (percentage reduction in perfusion pressure from control level) ([1]; 1 × 10^-4 M, 100 µM): 71%"
"CCOCCOc1ccc(C(O)CNC(C)CCc2ccc(OC)cc2)cc1[S+](C)[O-] (stereo not drawn) [Example 32E, 4-[2-(ethoxy)ethoxy]-α-<{[3-(4-methoxyphenyl)-1-methylpropyl]amino}methyl>-3-(methylsulfinyl)benzenemethanol hydrochloride]",–,> 150 mg/kg,–,–
"COc1ccc(CC(C)NC(C)C(O)c2ccc(O)c([S+](C)[O-])c2)cc1 (stereo not drawn) [Example 15F, 4-hydroxy-α-<{1-[2-(4-methoxyphenyl)-1-methylethyl]amino}ethyl>-3-(methylsulfinyl)benzenemethanol acetate salt]",–,> 20.0 mg/kg,–,Actual reduction in blood pressure observed at the indicated dose (systolic blood pressure; 20 mg./kg.): -25 mm. Hg
"C[S+]([O-])c1cc(CCNC(C)(C)CCc2ccccc2)ccc1O.Cl (stereo not shown) [Example 35C, 4-{2-[(1,1-dimethyl-3-phenylpropyl)amino]ethyl}-2-(methylsulfinyl)phenol hydrochloride]",-20 mm. Hg,> 50 mg/kg,0.6 mg/kg,–
"CC(CCc1ccc(O)cc1)NCC(O)c1ccc(O)c([S+](C)[O-])c1 (single isomer, unassigned) [Example 23C, 4-hydroxy-α-<{[4-(4-hydroxyphenyl)-1-methylpropyl]amino}methyl>-3-(methylsulfinyl)benzenemethanol cyclohexylsulfamate salt]",–,40.0 mg/kg,< 0.025 mg/kg,Actual percentage inhibition of heart rate increase above control level observed at the indicated dose (β-adrenergic; 0.025 mg./kg.): 80%
"CC(CCc1ccc2c(c1)OCO2)NCC(O)c1ccc(O)c([S+](C)[O-])c1 (stereo not drawn) [Example 31C, 4-hydroxy-α-<{[3-(3,4-methylenedioxyphenyl)-1-methylpropyl]amino}methyl>-3-(methylsulfinyl)benzenemethanol hydrochloride]",-54 mm. Hg,< 50 mg/kg,< 0.025 mg/kg,Actual percentage inhibition of heart rate increase above control level observed at the indicated dose (β-adrenergic; 0.025 mg./kg.): 60%
"COc1ccc(CCCC(C)NCC(O)c2ccc(O)c([S+](C)[O-])c2)cc1 (stereo not drawn) [Example 21D, 4-hydroxy-α-<{[4-(4-methoxyphenyl)-1-methylbutyl]amino}methyl>-3-(methylsulfinyl)benzenemethanol acetate salt]",–,40.0 mg/kg,–,"Rabbit Ear Artery vasodilation (percentage reduction in perfusion pressure from control level) ([1]; 1 × 10^-3 M, 1000 µM): 50%"
"COc1ccc(CCCC(C)(C)NCC(O)c2ccc(O)c([S+](C)[O-])c2)cc1 (stereo not drawn) [Example 22D, 4-hydroxy-α-<{[4-(4-methoxyphenyl)-1,1-dimethylbutyl]amino}methyl>-3-(methylsulfinyl)benzenemethanol]",-12 mm. Hg,> 50.0 mg/kg,–,–
"COc1ccc(CCC(C)NCCc2ccc(O)c([S+](C)[O-])c2)cc1 (stereo not shown) [Example 36C, 4-<2-{[3-(4-methoxyphenyl)-1-methylpropyl]amino}ethyl>-2-(methylsulfinyl)phenol hydrochloride]",–,> 150 mg/kg,–,"Actual reduction in blood pressure observed at the indicated dose (systolic blood pressure; 150 mg./kg., hydrochloride): -28 mm. Hg"
"COc1cc(CCNCC(O)c2ccc(O)c([S+](C)[O-])c2)cc(OC)c1OC (stereo not drawn) [Example 28C, 4-hydroxy-3-(methylsulfinyl)-α-<{[2-(3,4,5-trimethoxyphenyl)ethyl]-amino}methyl>benzenemethanol hydrochloride]",-15 mm. Hg,> 50 mg/kg,–,–
"COc1ccc(CCC(C)NCC(=O)c2ccc(OC(=O)c3ccccc3)c([S+](C)[O-])c2)cc1 (stereo not shown) [Example 25, 4'-hydroxy-2-{[3-(4-methoxyphenyl)-1-methylpropyl]amino}-3'-(methylsulfinyl)acetophenone 4'-benzoate hydrochloride]",-12 mm. Hg,> 50 mg/kg,–,–
"CC(CCc1ccccc1)NCCc1ccc(O)c([S+](C)[O-])c1 (stereo not shown) [Example 33C, 4-<2-{[1-methyl-3-phenylpropyl]amino}ethyl>-2-(methylsulfinyl)phenolhydrochloride]",-28 mm. Hg,> 50 mg/kg,1.0 mg/kg,–
"COc1ccc(CCC(C)NCC(O)c2ccc(O)c([S+](C)[O-])c2)cc1 (stereo not drawn) [Example 5F, 4-hydroxy-α-<{[3-(4-methoxyphenyl)-1-methylpropyl]amino}methyl>-3-(methylsulfinyl)benzenemethanol]",–,4.0 mg/kg,< 0.25 mg/kg,"Rabbit Ear Artery vasodilation (percentage reduction in perfusion pressure from control level) ([1]; 5 × 10^-5 M, 50 µM): 50%; Actual percentage inhibition of heart rate increase above control level observed at the indicated dose (β-adrenergic; 0.25 mg./kg.): 70%"
"COc1ccc(CCNCC(O)c2ccc(O)c([S+](C)[O-])c2)cc1OC (stereo not drawn) [Example 27C, α-<{[2-(3,4-dimethoxyphenyl)ethyl]amino}-methyl>-4-hydroxy-3-(methylsulfinyl)benzenemethanol hydrochloride]",-26 mm. Hg,> 50 mg/kg,ca. 0.10 mg./kg.,–
"COc1ccc(CCC(C)NCC(O)c2ccc(OC(=O)c3ccccc3)c([S+](C)[O-])c2)cc1 (stereo not drawn) [Example 8, 4-hydroxy-α-<{[3-(4-methoxyphenyl)-1-methylpropyl]amino}methyl>-3-(methylsulfinyl)benzenemethanol 4-benzoate hemi-sulfate]",–,9 mg/kg,–,–
"COc1ccc(CCC(C)NCC(=O)c2ccc(OC(=O)c3ccccc3)c([S+](C)[O-])c2)cc1Br (stereo not shown) [Example 7E, 4'-hydroxy-2-{[3-(3-bromo-4-methoxyphenyl)-1-methylpropyl]-amino}-3'-(methylsulfinyl)acetophenone 4'-benzoate hydrochloride]",–,30 mg/kg,> 1.0 mg/kg,Renal Hypertensive Dog MED10 (minimum repeated oral daily dose for sustained lowering of blood pressure of 10% or greater) (blood pressure): ~.10 mg/kg; Actual percentage inhibition of heart rate increase above control level observed at the indicated dose (β-adrenergic; 1.0 mg./kg.): 12%
